Data published in patent publication US20100285053A1, “Immunosuppressive Extract Of Cordyceps Sinensis And Uses Thereof” (Dalhousie University, priority 2006, published 2010).

Tests used:
Adherent macrophages = assay: Effect of MAPK inhibitors on IL-6 production by stimulated macrophages; format: cell-based, murine; conditions: 25 μM inhibitor 30 min pre-incubation, then ACE 3.4 mg/mL 48 hours
Description: Adherent macrophages were pre-incubated with media, vehicle (0.06% DMSO; Sigma), 25 μM ERK inhibitor, (PD98059; Calbiochem), or 25 μM p38 inhibitor (SB203580; Calbiochem) for 30 min at 37° C. before being treated with test agent. The cells were further incubated for 48 hours with ACE (3.4 mg/mL) or Zymosan (0.01%). DMSO was used as a vehicle control. IL-6 production was assayed using ELISA.

[1] = tested on: Peritoneal elicited macrophages; assay: Endotoxin test: Polymyxin B pre-treatment, IL-6 production by macrophages; format: cell-based; conditions: Polymyxin B 20 μg/ml 30 min, then LPS 10 ηg/ml
Description: To test for LPS contamination, macrophages were pre-treated with Polymyxin B, followed by incubation with ACE. Peritoneal elicited macrophages were pre-incubated with media or LPS inhibitor Polymyxin B (Calbiochem) at 20 μg/ml for 30 min at 37° C. Cells were further incubated with LPS (10 ηg/ml) or ACE (3.4 mg/ml). […] Results are shown as levels of IL-6 production, which were measured using ELISA. Means and standard deviations of triplicate samples are shown. Data are representative of three separate experiments.

Molecule | IL-6 production by ACE treated macrophages in presence of inhibitor (Adherent macrophages) | reduction of LPS activity (IL-6 production) [1] [%]
COc1cccc(-c2cc(=O)c3ccccc3o2)c1N [PD98059] | marked decreases of IL-6 production | 
C[S+]([O-])c1ccc(-c2nc(-c3ccncc3)c(-c3ccc(F)cc3)[nH]2)cc1 (stereo not drawn) [SB203580] | marked decreases of IL-6 production | 
Polymyxin B |  | ~80
